These results are taken from paper PMC9831606, “Computational design of peptides to target NaV1.7 channel with high potency and selectivity for the treatment of pain” (eLife, 2022).

For data set [1], the system named is rats. As to conditions: cited from earlier work.
In data set [2] the test system is male and female rats. Put plainly: von Frey mechanical withdrawal threshold after oxaliplatin CIPN induction. It counts as in vivo, rat. The conditions noted are these: after single i.p. oxaliplatin 6 mg/kg, 3 days; baseline 72.9±2.7 grams. Here is the method:
Chronic pain models: Chemotherapy induced neuropathy was induced in rats with oxaliplatin after i.t catheter placement recovery with a single i.p. dose of oxaliplatin 6 mg/kg. The animals were allowed to recover for 3 days and then were assessed in the open field assay to ensure motor function and with a von Frey assay to assess allodynia to verify their pain state. The von Frey assay with an electronic aesthesiometer quantified the average baseline for a group of male and female rats to be 72.9±2.7 grams for the mechanical withdrawal threshold after cannulation but before CIPN model induction which fell to 27.9±2.7 grams indicating allodynia. On the day of treatment rats were assessed for baseline measures and then treated and assayed for […] responses.

Molecules are shown by their SMILES.

For the compound `CSCC[C@@H]1NC(=O)CNC(=O)[C@H](CCC(=O)O)NC(=O)[C@@H]2CSSC[C@H](NC(=O)[C@@H](N)Cc3ccc(O)cc3)C(=O)N[C@@H](CCC(N)=O)C(=O)N[C@@H](CCCCN)C(=O)N[C@@H](Cc3c[nH]c4ccccc34)C(=O)N[C@@H](CCSC)C(=O)N[C@@H](Cc3c[nH]c4ccccc34)C(=O)N[C@@H]([C@@H](C)O)C(=O)N[C@H]3CSSC[C@H](NC(=O)[C@H](C(C)C)NC1=O)C(=O)N[C@@H](CCCNC(=N)N)C(=O)N[C@@H](CC(C)C)C(=O)N[C@@H](Cc1c[nH]c4ccccc14)C(=O)N[C@H](C(=O)N[C@@H](CCCCN)C(=O)N[C@@H](CCCCN)C(=O)N[C@@H](CCCCN)C(=O)N[C@@H](CC(C)C)C(=O)N[C@@H](Cc1c[nH]c4ccccc14)C(=O)O)CSSC[C@H](NC(=O)[C@H](CCCCN)NC(=O)[C@H](CCCNC(=N)N)NC(=O)[C@H](CCC(=O)O)NC(=O)[C@H](CO)NC(=O)[C@H](CC(=O)O)NC3=O)C(=O)N2` [WT ProTx-II], the “motor effect after intrathecal administration” value in data set [1] (2.4 µg i.t., ref Schmalhofer et al., 2008) is given as “laming effect”. In addition, in data set [1] (in 10 µL, intrathecal, ref Flinspach et al., 2017), the “maximum tolerated dose in rats” value is 2 µg.
`O=C1[O][Pt]2([NH][C@@H]3CCCC[C@H]3[NH]2)[O]C1=O` [oxaliplatin]: the “mechanical withdrawal threshold (von Frey, electronic aesthesiometer)” value in data set [2] was determined as 27.9±2.7 grams.
